Test results from the Kinase Knowledgebase extract (Sharma et al. 2016).

Molecular target: ROCK2 (human) (UniProt O75116)
Assay: Inhibition of ROCK2 Kinase Activity

ROCK2 (human), sequence (O75116 whole entry, looked up): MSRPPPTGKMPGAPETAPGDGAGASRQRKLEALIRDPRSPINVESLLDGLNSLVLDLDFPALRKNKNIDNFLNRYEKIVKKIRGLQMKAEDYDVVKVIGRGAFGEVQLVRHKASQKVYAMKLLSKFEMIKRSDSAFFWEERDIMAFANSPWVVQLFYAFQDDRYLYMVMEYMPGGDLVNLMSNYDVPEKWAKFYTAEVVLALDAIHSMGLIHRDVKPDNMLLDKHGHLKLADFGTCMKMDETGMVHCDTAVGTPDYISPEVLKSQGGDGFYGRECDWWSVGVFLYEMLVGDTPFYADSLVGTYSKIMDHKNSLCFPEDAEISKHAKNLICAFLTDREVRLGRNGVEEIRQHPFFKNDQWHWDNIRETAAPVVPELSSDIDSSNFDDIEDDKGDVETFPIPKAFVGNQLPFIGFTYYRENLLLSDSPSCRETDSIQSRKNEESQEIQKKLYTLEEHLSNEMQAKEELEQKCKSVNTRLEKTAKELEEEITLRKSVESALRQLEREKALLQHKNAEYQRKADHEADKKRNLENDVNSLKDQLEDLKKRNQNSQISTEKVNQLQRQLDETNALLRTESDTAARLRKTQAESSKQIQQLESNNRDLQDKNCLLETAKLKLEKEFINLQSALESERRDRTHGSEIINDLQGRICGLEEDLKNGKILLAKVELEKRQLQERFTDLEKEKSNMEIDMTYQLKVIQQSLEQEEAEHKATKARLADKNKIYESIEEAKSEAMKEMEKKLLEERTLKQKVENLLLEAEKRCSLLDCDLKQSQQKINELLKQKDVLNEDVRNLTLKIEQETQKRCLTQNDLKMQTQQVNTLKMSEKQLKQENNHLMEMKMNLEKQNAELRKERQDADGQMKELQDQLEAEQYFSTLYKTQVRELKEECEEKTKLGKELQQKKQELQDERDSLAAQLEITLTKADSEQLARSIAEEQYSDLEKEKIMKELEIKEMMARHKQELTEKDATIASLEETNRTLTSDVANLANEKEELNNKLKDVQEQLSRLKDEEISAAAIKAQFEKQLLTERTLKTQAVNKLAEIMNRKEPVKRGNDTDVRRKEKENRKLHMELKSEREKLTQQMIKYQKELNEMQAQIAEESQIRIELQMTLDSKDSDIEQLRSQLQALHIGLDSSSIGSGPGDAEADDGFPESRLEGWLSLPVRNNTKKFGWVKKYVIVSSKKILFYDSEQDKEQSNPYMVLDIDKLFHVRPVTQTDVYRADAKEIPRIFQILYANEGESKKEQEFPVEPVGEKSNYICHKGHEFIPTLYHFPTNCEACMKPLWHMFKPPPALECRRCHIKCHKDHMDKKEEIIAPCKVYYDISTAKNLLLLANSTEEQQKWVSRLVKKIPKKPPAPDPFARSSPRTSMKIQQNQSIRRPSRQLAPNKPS

| Structure (SMILES) | IC50 |
| --- | --- |
| Brc1c(OC2CCNCC2)ccc2cnccc12 | ≤ 1 µM |
| CN1CCCC(COc2ccc3cnccc3c2Br)C1 (stereo not drawn) | ≤ 1 µM |
| c1ccc2oc(-c3c(OC4CCNCC4)ccc4cnccc34)cc2c1 | ≤ 1 µM |
| Clc1cc2cnccc2c(Cl)c1OC1CCNCC1 | ≤ 1 µM |
| COc1cc(Nc2cc3cc(OC4CCNCC4)ccc3cn2)cc(OC)c1OC | ≤ 1 µM |
| Clc1cncc2ccc(OC3CCNCC3)cc12 | ≤ 1 µM |
| Cc1cc(OC2CCNCC2)c(C)c2ccncc12 | ≤ 1 µM |

Further lines, results first:

| IC50 | Structure (SMILES) |
| --- | --- |
| ≤ 1 µM | Clc1cc(OC2CCNCC2)cc2ccncc12 |
| ≤ 1 µM | c1ccc(-c2cc3cnccc3cc2OC2CCNCC2)cc1 |
| ≤ 1 µM | COc1ccc(-c2c(OC3CCNCC3)ccc3cnccc23)cc1N |
| ≤ 1 µM | c1cc2c(cc1Nc1cc3cc(OC4CCNCC4)ccc3cn1)OCO2 |
| ≤ 1 µM | Ic1c(OC2CCNCC2)ccc2cnccc12 |
| ≤ 1 µM | COc1ccc2cc(CN3CCC(Oc4ccc5cnccc5c4)CC3)ccc2c1 |
